In ChEMBL document CHEMBL3885861, “Open TG-GATES”:

Species on record: Rattus norvegicus
Experiment: Open TG-GATES - Regimen: Daily Repeat
Format: toxicity, organism-based, Sprague-Dawley
Design: regimen Daily Repeat, gender Male, age 6 weeks
Settings: in vivo, po, route gavage; for APTT / Bas / Eos / Fbg / Hb / Ht / Lym / MCH / MCHC / MCV / Mono / Neu / PT / Plat / RBC / Ret / WBC: tissue Blood; for ALP / ALT / AST / BUN / CRE / DBIL / GLC / IP / K / Na / PL / RALB / TBIL / TC / TG / TP / gamma-GTP: tissue Plasma
[1] = 0 mg/kg, 72 h, dose level Control, time 3 day
[2] = 0 mg/kg, […], dose level Control, time 7 day
[3] = 0 mg/kg, […], dose level Control, time 14 day
[4] = 0 mg/kg, […], dose level Control, time 28 day
[5] = 30 mg/kg, 72 h, dose level Low, time 3 day
[6] = 30 mg/kg, […], dose level Low, time 7 day
[7] = 30 mg/kg, […], dose level Low, time 14 day
[8] = 30 mg/kg, […], dose level Low, time 28 day

With NS(=O)(=O)c1cc(C(=O)O)c(NCc2ccco2)cc1Cl [FUROSEMIDE] the TERMINAL_BW [1] was 240.2 g, the APTT [1] was 15.8 s and the Bas [1] was 0.2%. For the same compound, the Eos [1] was 1%, the Fbg [1] was 306 mg/dL and the Hb [1] was 13.5 g/dL. It also gave a Ht [1] of 40.3%, a Lym [1] of 73.8% and an MCH [1] of 21.5 pg. The MCHC [1] was 33.6%, the MCV [1] was 64.1 fL and the Mono [1] was 3.2%. It also gave a Neu [1] of 21.2%, a PT [1] of 14.8 s and a Plat [1] of 114.8 x10_4/uL. It also gave an RBC [1] of 629.2 x10_4/ul, a Ret [1] of 6.5% and a WBC [1] of 92.7 x10_2/uL. For the same compound, the ALP [1] was 1396.2 IU/L, the ALT [1] was 42 IU/L and the AST [1] was 66.2 IU/L. For the same compound, the BUN [1] was 14.4 mg/dL, the CRE [1] was 0.2 mg/dL and the DBIL [1] was 0.016 mg/dL. It also gave a GLC [1] of 180.2 mg/dL, an IP [1] of 7.7 mg/dL and a K [1] of 3.8 meq/L. It also gave a Na [1] of 142.6 meq/L, a PL [1] of 182 mg/dL and an RALB [1] of 2.7 g/dL. For the same compound, the TBIL [1] was 0.056 mg/dL, the TC [1] was 91 mg/dL and the TG [1] was 130 mg/dL. It also gave a TP [1] of 5.8 g/dL, a gamma-GTP [1] of 0.4 IU/L and a TERMINAL_BW [2] of 280.2 g. It also gave a TERMINAL_BW [3] of 327.8 g, a TERMINAL_BW [4] of 406.3 g and an APTT [2] of 17.8 s. It also gave a Bas [2] of 0.6%, an Eos [2] of 1% and a Fbg [2] of 294.2 mg/dL. For the same compound, the Hb [2] was 13.7 g/dL, the Ht [2] was 39.9% and the Lym [2] was 80.2%. For the same compound, the MCH [2] was 21.2 pg, the MCHC [2] was 34.5% and the MCV [2] was 61.5 fL. For the same compound, the Mono [2] was 2.6%, the Neu [2] was 14.8% and the PT [2] was 15.5 s. It also gave a Plat [2] of 125.8 x10_4/uL, an RBC [2] of 648.6 x10_4/ul and a Ret [2] of 5.2%. The WBC [2] was 100.8 x10_2/uL, the APTT [3] was 19.3 s and the Bas [3] was 0.4%. The Eos [3] was 1%, the Fbg [3] was 289.4 mg/dL and the Hb [3] was 15 g/dL. For the same compound, the Ht [3] was 43.1%, the Lym [3] was 81% and the MCH [3] was 21 pg. The MCHC [3] was 34.7%, the MCV [3] was 60.4 fL and the Mono [3] was 2.8%. It also gave a Neu [3] of 14.2%, a PT [3] of 15.3 s and a Plat [3] of 117.3 x10_4/uL. It also gave an RBC [3] of 713.8 x10_4/ul, a Ret [3] of 4.2% and a WBC [3] of 117.4 x10_2/uL. The APTT [4] was 17.8 s, the Bas [4] was 0.6% and the Eos [4] was 1.2%. For the same compound, the Fbg [4] was 266.6 mg/dL, the Hb [4] was 15.1 g/dL and the Ht [4] was 44.6%. The Lym [4] was 82.2%, the MCH [4] was 19.1 pg and the MCHC [4] was 33.7%. The MCV [4] was 56.7 fL, the Mono [4] was 2.2% and the Neu [4] was 13.4%. The PT [4] was 16.4 s, the Plat [4] was 100.7 x10_4/uL and the RBC [4] was 787.6 x10_4/ul. It also gave a Ret [4] of 1.8%, a WBC [4] of 98.8 x10_2/uL and an ALP [2] of 1277.2 IU/L. For the same compound, the ALT [2] was 38.2 IU/L, the AST [2] was 61.4 IU/L and the BUN [2] was 15.6 mg/dL. It also gave a CRE [2] of 0.2 mg/dL, a DBIL [2] of 0.018 mg/dL and a GLC [2] of 179.4 mg/dL. It also gave an IP [2] of 7.8 mg/dL, a K [2] of 4 meq/L and a Na [2] of 142.6 meq/L. The PL [2] was 168 mg/dL, the RALB [2] was 2.7 g/dL and the TBIL [2] was 0.05 mg/dL. The TC [2] was 85.6 mg/dL, the TG [2] was 119.8 mg/dL and the TP [2] was 5.9 g/dL. For the same compound, the gamma-GTP [2] was 0.8 IU/L, the ALP [3] was 1456.8 IU/L and the ALT [3] was 43.4 IU/L. For the same compound, the AST [3] was 64.6 IU/L, the BUN [3] was 15.2 mg/dL and the CRE [3] was 0.2 mg/dL. The DBIL [3] was 0.014 mg/dL, the GLC [3] was 177.8 mg/dL and the IP [3] was 7.4 mg/dL. It also gave a K [3] of 4.1 meq/L, a Na [3] of 143.6 meq/L and a PL [3] of 160.6 mg/dL. It also gave an RALB [3] of 2.8 g/dL, a TBIL [3] of 0.046 mg/dL and a TC [3] of 69.8 mg/dL. It also gave a TG [3] of 157.2 mg/dL, a TP [3] of 6.1 g/dL and a gamma-GTP [3] of 0.6 IU/L. For the same compound, the ALP [4] was 1033.8 IU/L, the ALT [4] was 36.4 IU/L and the AST [4] was 64.6 IU/L. It also gave a BUN [4] of 14.4 mg/dL, a CRE [4] of 0.2 mg/dL and a DBIL [4] of 0.016 mg/dL. The GLC [4] was 183.4 mg/dL, the IP [4] was 6.3 mg/dL and the K [4] was 3.9 meq/L. The Na [4] was 143.8 meq/L, the PL [4] was 137.2 mg/dL and the RALB [4] was 2.8 g/dL. The TBIL [4] was 0.048 mg/dL, the TC [4] was 64.8 mg/dL and the TG [4] was 116.6 mg/dL. For the same compound, the TP [4] was 6.2 g/dL, the gamma-GTP [4] was 0.4 IU/L and the TERMINAL_BW [5] was 242 g. It also gave an APTT [5] of 16.1 s, a Bas [5] of 0.2% and an Eos [5] of 1%. It also gave a Fbg [5] of 282.4 mg/dL, a Hb [5] of 13.4 g/dL and a Ht [5] of 39.8%. The Lym [5] was 79.2%, the MCH [5] was 21.7 pg and the MCHC [5] was 33.6%. The MCV [5] was 64.6 fL, the Mono [5] was 2.4% and the Neu [5] was 16.8%. It also gave a PT [5] of 15.2 s, a Plat [5] of 115.5 x10_4/uL and an RBC [5] of 617 x10_4/ul. The Ret [5] was 5.5%, the WBC [5] was 93.7 x10_2/uL and the ALP [5] was 1458.2 IU/L. The ALT [5] was 37.6 IU/L, the AST [5] was 66.6 IU/L and the BUN [5] was 16.2 mg/dL. For the same compound, the CRE [5] was 0.2 mg/dL, the DBIL [5] was 0.012 mg/dL and the GLC [5] was 173.8 mg/dL. The IP [5] was 7.3 mg/dL, the K [5] was 3.8 meq/L and the Na [5] was 142.6 meq/L. It also gave a PL [5] of 157 mg/dL, an RALB [5] of 2.6 g/dL and a TBIL [5] of 0.048 mg/dL. The TC [5] was 79.2 mg/dL, the TG [5] was 94.6 mg/dL and the TP [5] was 5.7 g/dL. The gamma-GTP [5] was 0.6 IU/L, the TERMINAL_BW [6] was 283.7 g and the TERMINAL_BW [7] was 321.7 g. The TERMINAL_BW [8] was 410.5 g, the APTT [6] was 17.3 s and the Bas [6] was 0.2%. For the same compound, the Eos [6] was 1%, the Fbg [6] was 291 mg/dL and the Hb [6] was 13.4 g/dL. The Ht [6] was 39.7%, the Lym [6] was 78.2% and the MCH [6] was 21.2 pg. For the same compound, the MCHC [6] was 33.7%, the MCV [6] was 62.8 fL and the Mono [6] was 3%. The Neu [6] was 16.4%, the PT [6] was 15.5 s and the Plat [6] was 114.5 x10_4/uL. The RBC [6] was 631.8 x10_4/ul, the Ret [6] was 5.9% and the WBC [6] was 125.8 x10_2/uL. It also gave an APTT [7] of 19.2 s, a Bas [7] of 0.4% and an Eos [7] of 0.8%. It also gave a Fbg [7] of 296.8 mg/dL, a Hb [7] of 14.4 g/dL and a Ht [7] of 42.1%. The Lym [7] was 81.4%, the MCH [7] was 20.8 pg and the MCHC [7] was 34.3%. For the same compound, the MCV [7] was 60.7 fL, the Mono [7] was 2.2% and the Neu [7] was 14.2%. The PT [7] was 15.8 s, the Plat [7] was 109.5 x10_4/uL and the RBC [7] was 693.6 x10_4/ul. For the same compound, the Ret [7] was 3.9%, the WBC [7] was 112.4 x10_2/uL and the APTT [8] was 17.7 s. The Bas [8] was 0.6%, the Eos [8] was 1% and the Fbg [8] was 270.4 mg/dL. The Hb [8] was 14.8 g/dL, the Ht [8] was 43.9% and the Lym [8] was 81.2%. It also gave an MCH [8] of 19.8 pg, an MCHC [8] of 33.8% and an MCV [8] of 58.5 fL. The Mono [8] was 1.8%, the Neu [8] was 15% and the PT [8] was 15.8 s. For the same compound, the Plat [8] was 95.5 x10_4/uL, the RBC [8] was 750.2 x10_4/ul and the Ret [8] was 2.5%. The WBC [8] was 110.9 x10_2/uL, the ALP [6] was 1491.8 IU/L and the ALT [6] was 41.2 IU/L. The AST [6] was 67.4 IU/L, the BUN [6] was 16.2 mg/dL and the CRE [6] was 0.2 mg/dL. For the same compound, the DBIL [6] was 0.018 mg/dL, the GLC [6] was 188.2 mg/dL and the IP [6] was 7.5 mg/dL. The K [6] was 4 meq/L, the Na [6] was 142.6 meq/L and the PL [6] was 170.2 mg/dL. The RALB [6] was 2.6 g/dL, the TBIL [6] was 0.05 mg/dL and the TC [6] was 83.6 mg/dL. It also gave a TG [6] of 130.2 mg/dL, a TP [6] of 5.7 g/dL and a gamma-GTP [6] of 0.8 IU/L. The ALP [7] was 1426.6 IU/L, the ALT [7] was 40.8 IU/L and the AST [7] was 70 IU/L. The BUN [7] was 16.6 mg/dL, the CRE [7] was 0.2 mg/dL and the DBIL [7] was 0.016 mg/dL. The GLC [7] was 188.6 mg/dL, the IP [7] was 6.7 mg/dL and the K [7] was 3.9 meq/L. For the same compound, the Na [7] was 143.6 meq/L, the PL [7] was 152 mg/dL and the RALB [7] was 2.6 g/dL. The TBIL [7] was 0.046 mg/dL, the TC [7] was 72.2 mg/dL and the TG [7] was 126.6 mg/dL. The TP [7] was 5.9 g/dL, the gamma-GTP [7] was 0.4 IU/L and the ALP [8] was 1044.8 IU/L. For the same compound, the ALT [8] was 36 IU/L, the AST [8] was 58.6 IU/L and the BUN [8] was 15.8 mg/dL. It also gave a CRE [8] of 0.2 mg/dL, a DBIL [8] of 0.016 mg/dL and a GLC [8] of 179.4 mg/dL. The IP [8] was 5.8 mg/dL, the K [8] was 3.9 meq/L and the Na [8] was 144 meq/L. It also gave a PL [8] of 164.4 mg/dL, an RALB [8] of 2.7 g/dL and a TBIL [8] of 0.044 mg/dL. For the same compound, the TC [8] was 78.4 mg/dL, the TG [8] was 155.8 mg/dL and the TP [8] was 6.3 g/dL. The gamma-GTP [8] was 1 IU/L.
